We go through 20 compounds from patent publication US12473283B2, “Compounds and their use” (Debiopharm International S.A., priority 2019, dated 2025).

The structures appear in SMILES notation. In brackets after ≈: the same amount, converted by molar mass. Where two headings read alike, the source gives them in different places. A value given as a limit tells only on which side of the number the result lay.

Assay [1] addresses FabI enzyme from Escherichia coli (Escherichia coli, UniProt P0AEK4). Briefly: Inhibition of FabI enzyme, rate of NADH consumption. The format is biochemical. The method, then:
(§1) Inhibition of FabI enzyme from Acinetobacter baumannii and Escherichia coli was tested by measuring the rate of NADH consumption (Δabsorbance at 340 nm/min) at 30° C. in 96-well plate format using an automated plate reader in the presence or absence of the test compounds. The assay mixture contained 100 mM Tris-HCl, pH 7.25 (A. baumannii) or 7.5 (E. coli), 100 mM ammonium acetate, 0.02% (A. baumannii) or 0.05% (E. coli) Pluronic F-68, 25 μM crotonyl ACP, 50 μM NADH, 25 pM (A. baumannii) or 50 pM (E. coli) recombinant FabI protein, and 7.5% DMSO. Test compounds were added at concentrations ranging from 0.17 to 10,000 nM in a final well volume of 100 μl. This dose-response inhibitory assay was performed using a 10-point, serial dilution series for each test compound. IC50 values for each test compound were assigned from logistical sigmoid curve-fitting of the inhibition dose response curves.

The test system of assay [2] is A. baumannii ATCC BAA1605. Briefly: Broth microdilution MIC assay. As to conditions: Acinetobacter baumannii, ATCCBAA1605; CA-MHB, 35° C., 20 hours. In kind it is cell-based. As for the experimental part: (§2) The antibacterial activity of FabI inhibitors against select Gram-negative and Gram-positive bacterial species including susceptible and multi-drug resistant A. baumannii, E. coli, K. pneumoniae and S. aureus was tested using the broth microdilution Minimal Inhibitory Concentration (MIC) assay following CLSI guidelines for insoluble compounds. Test articles were serially diluted 2-fold in 100% dimethyl sulfoxide (DMSO) and then diluted 100-fold into cation adjusted Mueller-Hinton broth (CA-MHB) to achieve a 10-point test concentration range in 1% DMSO. Final compound concentrations were 0.016-8 μg/ml for S. aureus or 0.06-32 μg/ml for the Gram-negative species. MIC test plates were then prepared by transferring 100 μl of the final assay medium (test article in CA-MHB, 1% DMSO) into the appropriate wells of a sterile, low binding 96-well polystyrene plate. Direct colony suspension inoculums of the test strains were freshly prepared per CLSI guidelines, and the appropriate test wells were inoculated to achieve a final bacterial cell density of 5×10^5 CFU/ml. Growth control (no test article) and negative control (no bacterial inoculum) wells were also included. Exposure to light was minimized during all stages of assay preparation. […] Bacterial growth was then determined by measuring the optical density at 600 nm (OD600) using a SpectraMax Plus plate-reader spectrophotometer.
(In general: Dilution methods test growth across graded concentrations, often in twofold steps.)

For another assay, the system named is K. pneumoniae A6030827. Briefly: Broth microdilution MIC assay. As to conditions: Klebsiella pneumoniae, CA-MHB, 35° C., 20 hours. In kind it is cell-based. The method, then:
as §2

A further assay concerns S. aureus ATCC 29213. Briefly: Broth microdilution MIC assay. In kind it is cell-based. The note with it: Staphylococcus aureus, ATCC29213; CA-MHB, 35° C., 20 hours. As for the experimental part:
as §2

Assay [3] concerns the target FabI enzyme from Acinetobacter baumannii (Acinetobacter baumannii, UniProt D0CAD5). Briefly: Inhibition of FabI enzyme, rate of NADH consumption. The format is biochemical. As for the experimental part:
as §1

A further assay deals with E. coli AG100. Briefly: Broth microdilution MIC assay. In kind it is cell-based. The note with it: Escherichia coli, CA-MHB, 35° C., 20 hours. As for the experimental part:
as §2

The mark [4] stands for this setting: recombinant FabI, 30° C., pH 7.5, read-out: E. coli Fabl IC50.
Setting [5] is: recombinant FabI, 30° C., pH 7.25, read-out: A. baumannii Fabl IC50.

FabI enzyme from Acinetobacter baumannii, sequence (D0CAD5 entry or part of it): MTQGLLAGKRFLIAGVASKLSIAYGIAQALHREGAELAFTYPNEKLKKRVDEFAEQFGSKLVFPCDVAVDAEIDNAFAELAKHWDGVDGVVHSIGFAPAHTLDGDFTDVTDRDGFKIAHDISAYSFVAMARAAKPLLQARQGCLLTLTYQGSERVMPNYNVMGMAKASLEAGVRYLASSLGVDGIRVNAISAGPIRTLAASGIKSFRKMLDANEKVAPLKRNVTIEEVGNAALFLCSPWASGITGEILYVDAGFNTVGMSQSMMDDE
FabI enzyme from Escherichia coli, sequence (P0AEK4 whole entry): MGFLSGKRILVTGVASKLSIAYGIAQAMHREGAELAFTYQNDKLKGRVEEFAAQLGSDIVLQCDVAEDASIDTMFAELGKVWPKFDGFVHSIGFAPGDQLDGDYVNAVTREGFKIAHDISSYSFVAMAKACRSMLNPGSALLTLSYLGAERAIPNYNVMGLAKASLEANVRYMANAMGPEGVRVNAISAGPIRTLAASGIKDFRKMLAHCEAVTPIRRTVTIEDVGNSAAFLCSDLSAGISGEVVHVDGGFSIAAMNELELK

As for `Cc1c(CN(C)C(=O)/C=C/c2cnc3c(c2)NC[C@@H](N2C[C@@H](C)O[C@@H](C)C2)C(=O)N3)oc2ccccc12` (single isomer, unassigned) [Compound 21], the IC50 (as a rule, the concentration needed to halve the response being measured) in assay [1] (setting [4]) was less than 10 nM. Further, the MIC (as a rule, the smallest concentration in the dilution series that meets the test's criterion for growth inhibition) in assay [2] is no more than 4 µg/mL; against K. pneumoniae A6030827 it was 16 µg/mL (≈ 31.8 µM); in the assay with S. aureus ATCC 29213, no more than 4 µg/mL.
As to `Cc1oc2ccccc2c1CN(C)C(=O)/C=C/c1cnc2c(c1)NC[C@H](N1CC3(COC3)C1)C(=O)N2` (single isomer, unassigned) [Compound 35], the IC50 in assay [1] (setting [4]) and in assay [3] (setting [5]) was less than 10 nM each time. For the same compound, the MIC (in assay [2]; in the assay on S. aureus ATCC 29213) was no more than 4 µg/mL each time.
Turning to `Cc1c(CN(C)C(=O)/C=C/c2cnc3c(c2)CC[C@H](N)C(=O)N3)oc2ccccc12.Cl` (single isomer, unassigned) [Compound 71, hydrochloride], the IC50 in assay [1] and in assay [3] was less than 10 nM each time.
Take `Cc1c(CN(C)C(=O)C=Cc2cnc3c(c2)CCC(N)C(=O)N3)oc2cccc(OC3CCC(N)CC3)c12` (single isomer, unassigned) [Compound 86]: the IC50 in assay [3] (setting [5]) was less than 10 nM. Also, the MIC (in assay [2]; in the assay on K. pneumoniae A6030827; against E. coli AG100; with S. aureus ATCC 29213) was no more than 4 µg/mL each time.
As to `Cc1c(CN(C)C(=O)/C=C/c2cnc3c(c2)CC[C@H](N(C)C)C(=O)N3)oc2ccccc12` (single isomer, unassigned) [Compound 96], the IC50 in assay [3] (setting [5]) was less than 10 nM. Moreover, the MIC is no more than 4 µg/mL in assay [2], no more than 4 µg/mL in the assay with K. pneumoniae A6030827, 8 µg/mL (≈ 18.5 µM) in the assay with E. coli AG100 and no more than 4 µg/mL in the assay on S. aureus ATCC 29213.
For `Cc1c(CN(C)C(=O)/C=C/c2cnc3c(c2)CC[C@H](N2CCOCC2)C(=O)N3)oc2c(F)cccc12` (single isomer, unassigned) [Compound 113], the IC50 in assay [3] (setting [5]) was less than 10 nM. Moreover, the MIC in assay [2] was no more than 4 µg/mL; with K. pneumoniae A6030827, no more than 4 µg/mL; with E. coli AG100, 8 µg/mL (≈ 16.2 µM); with S. aureus ATCC 29213, no more than 4 µg/mL.
As for `Cc1c(CN(C)C(=O)/C=C/c2cnc3c(c2)CC[C@H](N)C(=O)N3)sc2ccccc12.Cl` (single isomer, unassigned) [Compound 119, hydrochloride], the IC50 in assay [1] and in assay [3] was less than 10 nM in each case.
Consider `Cc1c(CN(C)C(=O)/C=C/c2cnc3c(c2)CC[C@H](N)C(=O)N3)oc2cccc(F)c12.Cl` (single isomer, unassigned) [Compound 130], for which the MIC (in assay [2]; in the assay on K. pneumoniae A6030827; in the assay on E. coli AG100; against S. aureus ATCC 29213) was no more than 4 µg/mL in each case.
Take `Cc1c(CN(C)C(=O)/C=C/c2cnc3c(c2)CC[C@H](N)C(=O)N3)sc2c(F)cccc12.Cl` (single isomer, unassigned) [Compound 140]: the MIC (in assay [2]; against K. pneumoniae A6030827; in the assay on E. coli AG100; with S. aureus ATCC 29213) was no more than 4 µg/mL each time.
In the case of `Cc1c(CN(C)C(=O)/C=C/c2cnc3c(c2)CC[C@H](N)C(=O)N3)oc2cccc(CNc3cccnc3)c12.Cl.Cl` (single isomer, unassigned) [Compound 167], the MIC (in assay [2]; in the assay on K. pneumoniae A6030827; against E. coli AG100; against S. aureus ATCC 29213) was no more than 4 µg/mL in each case.
Take `Cc1c(CN(C)C(=O)/C=C/c2cnc3c(c2)CC[C@H](N2CC(O)C2)C(=O)N3)oc2ccccc12` (single isomer, unassigned) [Compound 171]: the IC50 in assay [3] (setting [5]) was less than 10 nM. In addition, the MIC (in assay [2]; against K. pneumoniae A6030827; with E. coli AG100; against S. aureus ATCC 29213) was no more than 4 µg/mL throughout.
Take `Cc1c(CN(C)C(=O)/C=C/c2cnc3c(c2)CC[C@H](N2CC4(COC4)C2)C(=O)N3)oc2ccccc12` (single isomer, unassigned) [Compound 190]: the IC50 in assay [1] (setting [4]) and in assay [3] (setting [5]) was less than 10 nM each time. Further, the MIC (in assay [2]; against K. pneumoniae A6030827; against E. coli AG100; against S. aureus ATCC 29213) was no more than 4 µg/mL in each case.
As to `Cc1oc2c(N)cccc2c1CN(C)C(=O)/C=C/c1cnc2c(c1)CC[C@H](N)C(=O)N2` (single isomer, unassigned) [Compound 193], in assay [1] (setting [4]), the IC50 was less than 10 nM. Further, the MIC (in assay [2]; in the assay with E. coli AG100; with S. aureus ATCC 29213) was no more than 4 µg/mL each time.
As for `Cc1c(CN(C)C(=O)/C=C/c2cnc3c(c2)CCC(N)C(=O)N3)oc2c(Cl)cccc12.O=C(O)C(F)(F)F` (stereo not drawn) [Compound 92, (E)-3-(7-amino-8-oxo-6,7,8,9-tetrahydro-5H-pyrido[2,3-b]azepin-3-yl)-N-((7-chloro-3-methylbenzofuran-2-yl)methyl)-N-methylacrylamide 2,2,2-trifluoroacetate], the IC50 in assay [3] is less than 10 nM. Besides, the MIC in assay [2] is 8 µg/mL; against K. pneumoniae A6030827 it was no more than 4 µg/mL; with E. coli AG100, no more than 4 µg/mL; with S. aureus ATCC 29213, no more than 4 µg/mL.
Compound `Cc1oc2ccccc2c1CN(C)C(=O)/C=C/c1cnc2c(c1)CCC(N)C(=O)N2.Cl` (stereo not drawn) [Compound 94, (E)-3-(7-amino-8-oxo-6,7,8,9-tetrahydro-5H-pyrido[2,3-b]azepin-3-yl)-N-methyl-N-((2-methylbenzofuran-3-yl)methyl)acrylamide hydrochloride] had an IC50 in assay [3] of less than 10 nM. Also, the MIC is no more than 4 µg/mL in assay [2], no more than 4 µg/mL in the assay with K. pneumoniae A6030827, 16 µg/mL in the assay with E. coli AG100 and no more than 4 µg/mL against S. aureus ATCC 29213.
In the case of `Cc1c(CN(C)C(=O)/C=C/c2cnc3c(c2)CCC(N(C)C)C(=O)N3)oc2ccccc12` (stereo not drawn) [Compound 95, (E)-3-(7-(dimethylamino)-8-oxo-6,7,8,9-tetrahydro-5H-pyrido[2,3-b]azepin-3-yl)-N-methyl-N-((3-methylbenzofuran-2-yl)methyl)acrylamide], the IC50 in assay [3] (setting [5]) is less than 10 nM. The MIC (in assay [2]; with K. pneumoniae A6030827; in the assay with E. coli AG100; in the assay with S. aureus ATCC 29213) was no more than 4 µg/mL in each case.
Turning to `Cc1oc2ccccc2c1CN(C)C(=O)/C=C/c1cnc2c(c1)CCC(N1CCOCC1)C(=O)N2` (stereo not drawn) [Compound 173, (E)-N-methyl-N-((2-methylbenzofuran-3-yl)methyl)-3-(7-morpholino-8-oxo-6,7,8,9-tetrahydro-5H-pyrido[2,3-b]azepin-3-yl)acrylamide], the IC50 in assay [1] (setting [4]) and in assay [3] (setting [5]) was less than 10 nM in each case. Also, the MIC (in assay [2]; in the assay on S. aureus ATCC 29213) was no more than 4 µg/mL each time.
Take `Cc1c(CN(C)C(=O)/C=C/c2cnc3c(c2)CCC(N2CC4(CCOCC4)C2)C(=O)N3)oc2ccccc12` (stereo not drawn) [Compound 176, (E)-N-methyl-N-((3-methylbenzofuran-2-yl)methyl)-3-(8-oxo-7-(7-oxa-2-azaspiro[3.5]nonan-2-yl)-6,7,8,9-tetrahydro-5H-pyrido[2,3-b]azepin-3-yl)acrylamide]: the IC50 in assay [3] (setting [5]) was less than 10 nM. Besides, the MIC (in assay [2]; in the assay with K. pneumoniae A6030827; with E. coli AG100; against S. aureus ATCC 29213) was no more than 4 µg/mL each time.
Take `Cc1c(CN(C)C(=O)/C=C/c2cnc3c(c2)CCC(N2CCS(=O)(=O)CC2)C(=O)N3)oc2ccccc12` (stereo not drawn) [Compound 179, (E)-3-(7-(1,1-dioxidothiomorpholino)-8-oxo-6,7,8,9-tetrahydro-5H-pyrido[2,3-b]azepin-3-yl)-N-methyl-N-((3-methylbenzofuran-2-yl)methyl)acrylamide]: the IC50 in assay [3] (setting [5]) was less than 10 nM. The MIC in assay [2] is no more than 4 µg/mL; against K. pneumoniae A6030827 it was 8 µg/mL (≈ 15.3 µM); in the assay on E. coli AG100 it was 8 µg/mL (≈ 15.3 µM); against S. aureus ATCC 29213 it was no more than 4 µg/mL.
In the case of `Cc1oc2c(N)cccc2c1CN(C)C(=O)/C=C/c1cnc2c(c1)CCC(N1CCCC1)C(=O)N2` (stereo not drawn) [Compound 191, (E)-N-((7-amino-2-methylbenzofuran-3-yl)methyl)-N-methyl-3-(8-oxo-7-(pyrrolidin-1-yl)-6,7,8,9-tetrahydro-5H-pyrido[2,3-b]azepin-3-yl)acrylamide], the IC50 in assay [1] (setting [4]) was less than 10 nM. Also, the minimum inhibitory concentration (MIC) is no more than 4 µg/mL in assay [2], 8 µg/mL (≈ 16.9 µM) in the assay on E. coli AG100 and no more than 4 µg/mL against S. aureus ATCC 29213.
